The test system of experiment [1] is Chlorella sp. ATCC 7516. The experiment is described as follows: Algal efficacy testing of dry paint films (modified ASTM 5589, 6-well plates). In kind it is cell-based. The note with it: 3 weeks; for % inhibition: at the Total conc, versus blank sample; for Total conc (concentration chosen as minimum inhibitory concentration, pass level ≧75% inhibition): total active ingredient in acrylic/silicone paint, dry film on filter paper. Here is the method:
(§1) Slurries containing 33% antimicrobial active ingredient (chlorotoluron) were post added to a white, acrylic/silicone based outdoor paint free of biocides to give a total active ingredient concentration of 10000 and 1000 ppm respectively. KATHON™ 893T (100% OIT) was post added to a white, acrylic/silicone based outdoor paint free of biocides to give a total active ingredient concentration of 10000 and 1000 ppm respectively. These paints were then diluted with an antimicrobial free acrylic/silicone based paint and mixed to prepare targeted concentrations of antimicrobial compounds for the testing. The total biocides concentrations tested were 125, 250, 500, 1000, 2000 and 5000 ppm. After biocides addition or dilution, the paints were mixed 90 seconds with the horse power shaker (AXEL 75M3372/Agitateur SO-10MI) until uniformity was achieved. Paints containing different antimicrobial compounds at the same levels were mixed together in order to obtain the desired ratio of antimicrobial compounds. After one day, the paints were applied to Schleicher & Schuell filter paper at 280 μm wet film thickness and dried for 3 days at room temperature avoiding direct exposure to sunlight. Square discs (1.6 cm×1.6 cm) were cut out from each panel and were used as the substrate for algal efficacy tests. This sample size allowed for an agar border when the sample disc was placed into the well of the test plate.
(§2) Algal efficacy was tested according to modified ASTM 5589 which is a standard accelerated test method for determining resistance of various coatings (including paints) to algal defacement. To accommodate for high-throughput screening, this method was scaled down from petri dishes to 6-well plates. Bold Modified Basal Freshwater Nutrient Solution was used as growth medium. A single coated filter paper coupon was placed with a pair of sterile forceps at the center of the agar plug (on top) with the painted surface facing upwards. Algal inoculums were prepared by mixing equal concentrations (1×10^6 cfu/ml) and equal volumes of exponentially growing algae cultures.
(§3) Each well that contains a tested coupon was inoculated with 1750 μl of algal suspensions (1×10^6 cfu/ml) making sure that the whole surface (paint film as well as the agar surrounding it) was evenly covered. The plates were incubated at room temp (21° C.-25° C.) with cyclic exposure to light and dark phases, for a period of three weeks. The total area inhibited was evaluated at the end of each week according to percent area covered in 5% increments
(§4) At the end of the three week incubation period, the samples were scored for percent inhibition regarding color intensity compared to the blank sample.
(§5) The Synergy Index calculation was performed as follows.
(§6) The SI is calculated based on F. C. Kull et.
(§7) SI value of <1 in the formula indicates a synergism of the blended biocides exists.
(§8) The minimal targeted inhibition was set at 75%, meaning a coupon with at least 75% algal growth inhibition was considered as a pass.

Experiment [2] relates to Stichococcus bacillaris SAG 379-1a / CCAP 379/1a. The experiment is described as above. It counts as cell-based. The note with it: 3 weeks; for % inhibition: at the Total conc, versus blank sample; for Total conc (concentration chosen as minimum inhibitory concentration, pass level ≧75% inhibition): total active ingredient in acrylic/silicone paint, dry film on filter paper. Here is the method: as §1, §2, §3, §4, §5, §6, §7, §8

As a reminder, the % inhibition is the relative decrease from the control value, in per cent. As for `CCCCCCCCn1sccc1=O` [OIT, 2-n-octyl-4-isothiazolin-3-one], in experiment [1], the “% inhibition” value is listed as 50% and the “Total conc (concentration chosen as minimum inhibitory concentration, pass level ≧75% inhibition)” value is listed as 2000 ppm. Also, in experiment [2], the “% inhibition” value is given as 60% and the “Total conc (concentration chosen as minimum inhibitory concentration, pass level ≧75% inhibition)” value is 2000 ppm.

Consider `Cc1ccc(NC(=O)N(C)C)cc1Cl` [Chlorotoluron, N′-(3-chloro-4-methylphenyl)-N,N-dimethylurea], for which, in experiment [1], the “% inhibition” value is listed as 100% and the “Total conc (concentration chosen as minimum inhibitory concentration, pass level ≧75% inhibition)” value is recorded as 1000 ppm. In addition, in experiment [2], the “% inhibition” value was 90% and the “Total conc (concentration chosen as minimum inhibitory concentration, pass level ≧75% inhibition)” value turned out to be 500 ppm.

Values taken from patent US9326518B2, “Synergistic combination of a chlorotoluron compound and OIT for dry film protection” (Dow Global Technologies LLC, priority 2013, dated 2016).
